In the experiment the target is HiBiT tagged Wee1 (Homo sapiens, UniProt P30291). Description: Wee1 protein degradation assay (HiBiT assay). It counts as cell-based. On the technique in general: With HiBiT, luminescence reflects the tagged protein that the partner subunit can reach.
[1] abbreviates: engineered HT-1080 cells, 20 hours.
[2] abbreviates: engineered HT-1080 cells, 20 hours, maximum percentage of Wee1 degradation, read-out: HiBiT Wee1: Dmax.
The mark [3] stands for this setting: HT-1080, read-out: HiBiT Wee1: Dmax.

Each structure is given as a SMILES string. Like-named read-outs stand apart in the source and are kept apart here.

Chain of HiBiT tagged Wee1 (P30291 whole entry): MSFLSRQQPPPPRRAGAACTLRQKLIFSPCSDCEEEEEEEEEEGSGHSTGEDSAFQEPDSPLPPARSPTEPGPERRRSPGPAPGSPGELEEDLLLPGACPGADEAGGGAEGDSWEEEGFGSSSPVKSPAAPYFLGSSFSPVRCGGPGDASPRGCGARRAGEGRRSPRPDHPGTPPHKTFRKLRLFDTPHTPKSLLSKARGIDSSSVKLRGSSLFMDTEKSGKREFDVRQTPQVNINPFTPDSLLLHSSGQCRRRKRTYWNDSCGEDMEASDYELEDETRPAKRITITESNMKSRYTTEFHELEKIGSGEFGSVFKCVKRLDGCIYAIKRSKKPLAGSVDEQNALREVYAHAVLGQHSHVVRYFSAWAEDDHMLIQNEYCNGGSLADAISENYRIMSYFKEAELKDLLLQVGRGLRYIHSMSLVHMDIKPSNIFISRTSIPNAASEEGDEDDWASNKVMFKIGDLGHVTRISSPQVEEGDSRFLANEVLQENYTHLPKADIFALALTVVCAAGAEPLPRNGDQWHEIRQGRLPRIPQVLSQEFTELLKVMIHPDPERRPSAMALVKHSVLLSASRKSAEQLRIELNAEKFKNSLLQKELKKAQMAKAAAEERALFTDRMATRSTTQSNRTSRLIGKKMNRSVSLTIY

As to `C=CCn1c(=O)c2cnc(Nc3ccc(N4CCC(CN5CCN(c6ccc(NC7CCC(=O)NC7=O)cc6F)CC5)CC4)cc3)nc2n1-c1ccc2c(n1)[C@](C)(O)CC2` (single isomer, unassigned) [Compound 120], the DC50 (usually the concentration at which degradation of the target reaches its halfway point) under setting [1] is under 100 nM. In addition, the Dmax (as a rule, the largest share of the target that was removed) under setting [2] lay in the range of 50 to 75%.

`C[C@@]1(O)CC/C=C\Cn2c(=O)c3cnc(Nc4ccc(N5CCN(CC6CCN(c7ccc(NC8CCC(=O)NC8=O)cc7F)CC6)CC5)cc4)nc3n2-c2cccc1n2` (single isomer, unassigned) [Compound 142] came in with a DC50 under setting [1] of under 100 nM. For the same molecule, under setting [2], the Dmax was in the range of 50 to 75%.

The molecule `C=CCn1c(=O)c2cnc(Nc3ccc(N4CCC(N5CC[C@H](c6ccc(NC7CCC(=O)NC7=O)cc6F)C(F)(F)C5)CC4)cc3)nc2n1-c1ccc2c(n1)[C@@](O)(CC)CC2` (single isomer, unassigned) [Compound 183] yielded a DC50 under setting [1] of under 100 nM. In addition, the Dmax under setting [2] is over 75%.

Molecule `C=CCn1c(=O)c2cnc(Nc3ccc(N4CCC(N5CC[C@@H](c6ccc(NC7CCC(=O)NC7=O)cc6F)C(F)(F)C5)CC4)cc3)nc2n1-c1ccc2c(n1)[C@@](O)(CC)CC2` (single isomer, unassigned) [Compound 184] yielded a DC50 under setting [1] of under 100 nM. Moreover, under setting [2], the Dmax was over 75%.

In the case of `C=CCn1c(=O)c2cnc(Nc3ccc(N4CCN(CC5CCN(c6ccc(NC7CCC(=O)NC7=O)cc6F)CC5)CC4)cc3)nc2n1-c1ccc2c(n1)[C@@](O)(CC)CCC2` (single isomer, unassigned) [Compound 188], the DC50 under setting [1] was under 100 nM. Further, under setting [2], the Dmax was over 75%.

The molecule `C=CCn1c(=O)c2cnc(Nc3ccc(N4CCN(CC5CCN(c6ccc(NC7CCC(=O)NC7=O)cc6F)CC5)CC4)cc3)nc2n1-c1ccc2c(n1)[C@](C)(O)CCC2` (single isomer, unassigned) [Compound 190] displayed a DC50 under setting [1] of under 100 nM. Further, the Dmax under setting [2] was over 75%.

In the case of `C=CCn1c(=O)c2cnc(Nc3ccc(N4CCN(CC5CCN(c6ccc(NC7CCC(=O)NC7=O)cc6F)CC5)CC4)cc3)nc2n1-c1ccc2c(n1)[C@@](C)(O)CCC2` (single isomer, unassigned) [Compound 191], the half-maximal degradation concentration (DC50) under setting [1] is under 100 nM. Besides, the maximal degradation (Dmax) under setting [2] is over 75%.

For `O=C1CCC(N2C(=O)c3ccc(N4CCC(CN5CCc6cc(Nc7ncc8c(=O)n(-c9c(Cl)cccc9Cl)c9nccn9c8n7)ccc6C5)CC4)cc3C2=O)C(=O)N1` (centres unmarked) [Compound 1], the DC50 under setting [1] was over 1000 nM. Further, under setting [2], the Dmax is under 50%.

On to `O=C1CCC(N2C(=O)c3ccc(N4CCC(CCN5CCN(c6ccc(Nc7ncc8c(=O)n(-c9c(Cl)cccc9Cl)c9nccn9c8n7)cc6)CC5)CC4)cc3C2=O)C(=O)N1` (centres unmarked) [Compound 4], for which the DC50 under setting [1] is over 1000 nM. Further, the Dmax under setting [2] was under 50%.

Turning to `O=C1CCC(N2C(=O)c3ccc(N4CCC(CN5CCc6ccc(Nc7ncc8c(=O)n(-c9c(Cl)cccc9Cl)c9nccn9c8n7)cc6C5)CC4)cc3C2=O)C(=O)N1` (centres unmarked) [Compound 5], the DC50 under setting [1] was over 1000 nM. The Dmax under setting [2] is under 50%.

Turning to `C=CCn1c(=O)c2cnc(Nc3ccc(N4CCN(CCNc5ccc6c(c5)C(=O)N(C5CCC(=O)NC5=O)C6=O)CC4)cc3)nc2n1-c1cccc(C(C)(C)O)n1` (centres unmarked) [Compound 11], the DC50 under setting [1] is under 100 nM. Besides, under setting [2], the Dmax was 50 to 75%.

`C=CCn1c(=O)c2cnc(Nc3ccc(N4CCN(CC5CN(c6ccc7c(c6)C(=O)N(C6CCC(=O)NC6=O)C7=O)C5)CC4)c(C)c3)nc2n1-c1cccc(C(C)(C)O)n1` (centres unmarked) [Compound 12]: the DC50 under setting [1] was under 100 nM. In addition, the Dmax under setting [2] fell in the range of 50 to 75%.

Under setting [1], `O=C1CCC(N2C(=O)c3ccc(N4CC(CN5CCC(c6ccc(Nc7ncc8c(=O)n(-c9c(Cl)cccc9Cl)c9nccn9c8n7)cc6)CC5)C4)cc3C2=O)C(=O)N1` (centres unmarked) [Compound 13] returned a DC50 of under 100 nM. The Dmax under setting [2] fell in the range of 50 to 75%.

Turning to `O=C1CCC(N2C(=O)c3ccc(N4CCC(CCN5CCC(c6ccc(Nc7ncc8c(=O)n(-c9c(Cl)cccc9Cl)c9nccn9c8n7)cc6)CC5)CC4)cc3C2=O)C(=O)N1` (centres unmarked) [Compound 15], under setting [1], the DC50 is 100 to 1000 nM. Besides, the Dmax under setting [2] lay within 50 to 75%.

As to `Cc1cc(Nc2ncc3c(n2)N(C)CN(c2c(Cl)cccc2Cl)C3=O)ccc1C1CCN(CC2CCN(c3cccc4c3C(=O)N(C3CCC(=O)NC3=O)C4=O)CC2)CC1` (centres unmarked) [Compound 19], the DC50 under setting [1] is over 1000 nM. Under setting [2], the maximal degradation (Dmax) was under 50%.

Take `CN1CN(c2c(Cl)cccc2Cl)C(=O)c2cnc(Nc3ccc4c(c3)CN(CC3CN(c5ccc6c(c5)C(=O)N(C5CCC(=O)NC5=O)C6=O)C3)CC4)nc21` (centres unmarked) [Compound 20]: the DC50 under setting [1] is over 1000 nM. Further, under setting [2], the Dmax was under 50%.

Take `C=CCn1c(=O)c2cnc(Nc3ccc4c(c3)CN(CCCCCCNc3ccc5c(c3)C(=O)N(C3CCC(=O)NC3=O)C5=O)CC4)nc2n1-c1cccc(C(C)(C)O)n1` (centres unmarked) [Compound 22]: the Dmax under setting [3] is under 50%. The DC50 under setting [1] was over 1000 nM.

Molecule `C=CCn1c(=O)c2cnc(Nc3ccc4c(c3)CN(CCCNc3ccc5c(c3)C(=O)N(C3CCC(=O)NC3=O)C5=O)CC4)nc2n1-c1cccc(C(C)(C)O)n1` (centres unmarked) [Compound 23] displayed a DC50 under setting [1] of over 1000 nM. The Dmax under setting [2] is under 50%.

Consider `C=CCn1c(=O)c2cnc(Nc3ccc4c(c3)CN(CCCCNc3ccc5c(c3)C(=O)N(C3CCC(=O)NC3=O)C5=O)CC4)nc2n1-c1cccc(C(C)(C)O)n1` (centres unmarked) [Compound 24], for which, under setting [3], the Dmax is under 50%. Under setting [1], this molecule returned a DC50 of over 1000 nM.

As for `C=CCn1c(=O)c2cnc(Nc3ccc(N4CCN(CC5CCN(c6ccc7c(c6)CN(C6CCC(=O)NC6=O)C7=O)CC5)CC4)cc3)nc2n1-c1cccc(C(C)(C)O)n1` (centres unmarked) [Compound 25], the DC50 under setting [1] is under 100 nM. The Dmax under setting [2] lay in the range of 50 to 75%.

`COc1ccc(C(=O)N2CCC(CN3CCC(c4ccc(Nc5ncc6c(=O)n(-c7c(Cl)cccc7Cl)c7nccn7c6n5)cc4)CC3)CC2)cc1N1CCC(=O)NC1=O` [Compound 26]: the DC50 under setting [1] is over 1000 nM. In addition, the Dmax under setting [2] was under 50%.

As for `COc1ccc(C(=O)N2CCC(CCN3CCC(c4ccc(Nc5ncc6c(=O)n(-c7c(Cl)cccc7Cl)c7nccn7c6n5)cc4)CC3)CC2)cc1N1CCC(=O)NC1=O` [Compound 28], the DC50 under setting [1] was over 1000 nM. Also, the Dmax under setting [2] lay within 50 to 75%.

Molecule `C=CCn1c(=O)c2cnc(Nc3ccc(N4CCN(CCC5CCN(C(=O)c6ccc(OC)c(N7CCC(=O)NC7=O)c6)CC5)CC4)cc3)nc2n1-c1cccc(C(C)(C)O)n1` [Compound 29] displayed a DC50 under setting [1] of over 1000 nM. The Dmax under setting [2] was under 50%.

Take `Cc1cc(Nc2ncc3c(n2)N(C)CN(c2c(Cl)cccc2Cl)C3=O)ccc1N1CCC(CN2CCN(c3cccc4c3C(=O)N(C3CCC(=O)NC3=O)C4=O)CC2)CC1` (centres unmarked) [Compound 31]: the DC50 under setting [1] is over 1000 nM. The maximal degradation (Dmax) under setting [2] is under 50%.

As to `Cc1cc(Nc2ncc3c(n2)N(C)CN(c2c(Cl)cccc2Cl)C3=O)ccc1N1CCC(CN2CC3(C2)CN(c2ccc4c(c2)C(=O)N(C2CCC(=O)NC2=O)C4=O)C3)CC1` (centres unmarked) [Compound 32], the DC50 under setting [1] lay in the range of 100 to 1000 nM. Moreover, under setting [2], the Dmax fell in the range of 50 to 75%.

On to `Cc1cc(Nc2ncc3c(n2)N(C)CN(c2c(Cl)cccc2Cl)C3=O)ccc1N1CCC(CN2CCC(c3ccc4c(c3)C(=O)N(C3CCC(=O)NC3=O)C4=O)CC2)CC1` (centres unmarked) [Compound 33], for which, under “HT-1080, […], maximum percentage of Wee1 degradation, read-out: HiBiT Wee1: Dmax”, the Dmax is under 50%. This molecule came in with a DC50 under setting [1] of over 1000 nM.

Regarding `Cc1cc(Nc2ncc3c(n2)N(C)CN(c2c(Cl)cccc2Cl)C3=O)ccc1N1CCC(CN2CCN(c3ccc4c(c3)CN(C3CCC(=O)NC3=O)C4=O)CC2)CC1` (centres unmarked) [Compound 34], under setting [1], the DC50 is over 1000 nM. The Dmax under setting [2] was under 50%.

Regarding `C=CCn1c(=O)c2cnc(Nc3ccc(C4CCN(CC5CCN(c6ccc(C(=O)NC7CCC(=O)NC7=O)nc6)CC5)CC4)cc3)nc2n1-c1cccc(C(C)(C)O)n1` (centres unmarked) [Compound 35], the DC50 under setting [1] is over 1000 nM. Also, under setting [2], the Dmax was under 50%.

Take `C=CCn1c(=O)c2cnc(Nc3ccc(C4CCN(C[C@H]5CCN(c6ccc7c(c6)C(=O)N(C6CCC(=O)NC6=O)C7=O)C5)CC4)cc3)nc2n1-c1cccc(C(C)(C)O)n1` (some centres unmarked) [Compound 36]: the DC50 under setting [1] was under 100 nM. Also, under setting [2], the Dmax fell in the range of 50 to 75%.

In the case of `C=CCn1c(=O)c2cnc(Nc3ccc(N4CCN(C[C@@H]5CCN(c6ccc7c(c6)C(=O)N(C6CCC(=O)NC6=O)C7=O)C5)CC4)cc3)nc2n1-c1cccc(C(C)(C)O)n1` (some centres unmarked) [Compound 38], under setting [1], the DC50 was under 100 nM. Besides, under setting [2], the Dmax lay within 50 to 75%.

Consider `C=CCn1c(=O)c2cnc(Nc3ccc(C4CCN(C5CCN(c6ccc7c(c6)C(=O)N(C6CCC(=O)NC6=O)C7=O)C5)CC4)cc3)nc2n1-c1cccc(C(C)(C)O)n1` (centres unmarked) [Compound 39], for which the DC50 under setting [1] is 100 to 1000 nM. Besides, the Dmax under setting [2] was in the range of 50 to 75%.

Regarding `C=CCn1c(=O)c2cnc(Nc3ccc(N4CCN(C5CCN(c6ccc7c(c6)C(=O)N(C6CCC(=O)NC6=O)C7=O)CC5)CC4)cc3)nc2n1-c1cccc(C(C)(C)O)n1` (centres unmarked) [Compound 40], the DC50 under setting [1] is under 100 nM. Under setting [2], the Dmax was in the range of 50 to 75%.

Under setting [1], `O=C1CCC(N2C(=O)c3ccc(N4CC(N5CCC(c6ccc(Nc7ncc8c(=O)n(-c9c(Cl)cccc9Cl)c9nccn9c8n7)cc6)CC5)C4)cc3C2=O)C(=O)N1` (centres unmarked) [Compound 42] registered a DC50 of over 1000 nM. In addition, under setting [2], the Dmax is 50 to 75%.

For `C=CCn1c(=O)c2cnc(Nc3ccc(C4CCN(C5CN(c6ccc7c(c6)C(=O)N(C6CCC(=O)NC6=O)C7=O)C5)CC4)cc3)nc2n1-c1cccc(C(C)(C)O)n1` (centres unmarked) [Compound 43], under setting [1], the DC50 is under 100 nM. Moreover, the Dmax under setting [2] was over 75%.

As for `C=CCn1c(=O)c2cnc(Nc3ccc(C4CCN(C5CCN(c6cc7c(cc6F)C(=O)N(C6CCC(=O)NC6=O)C7=O)CC5)CC4)cc3)nc2n1-c1cccc(C(C)(C)O)n1` (centres unmarked) [Compound 44], the DC50 under setting [1] was under 100 nM. Further, the Dmax under setting [2] fell in the range of 50 to 75%.

Molecule `C=CCn1c(=O)c2cnc(Nc3ccc(N4CCN(CCCc5ccc6c(c5)C(=O)N(C5CCC(=O)NC5=O)C6=O)CC4)cc3)nc2n1-c1cccc(C(C)(C)O)n1` (centres unmarked) [Compound 45] displayed a DC50 under setting [1] of under 100 nM. The Dmax under setting [2] was over 75%.

In turn, `C=CCn1c(=O)c2cnc(Nc3ccc4c(c3)CN(CCCCc3cccc5c3CN(C3CCC(=O)NC3=O)C5=O)CC4)nc2n1-c1cccc(C(C)(C)O)n1` (centres unmarked) [Compound 49] showed a DC50 under setting [1] of over 1000 nM. Moreover, the Dmax under setting [2] was under 50%.

The values are drawn from patent US20250049798A1, “WEE1 PROTEIN KINASE DEGRADATION AGENT AND USE THEREOF” (HANGZHOU GLUBIO PHARMACEUTICAL CO. LTD., priority 2021, published 2025).
